Measured values taken from patent US20110105515A1, “TARGETING THE ONCOPROTEIN NUCLEOPHOSMIN” (President and Fellows of Harvard College, priority 2007, published 2011).
Entries after “also recorded” stand apart in the source; their conditions may differ.

Experiments:
[1] = target: T1, exportin-1 (XPO1) (Homo sapiens, UniProt O14980); assay: Competitive binding affinity-isolation with probe 5 in T-47D lysates, exportin-1; settings: 10 μM probe 5, 100 μM inhibitor
T1 construct: endogenous in cells; host or cells: T-47D lysate
Source text: (§1) The supernatant was discarded.
(§2) See above for solution preparation.

[2] = target: T2, nucleophosmin (Homo sapiens, UniProt P06748); assay: Competitive binding affinity-isolation with probe 5 in T-47D lysates, nucleophosmin; settings: for inhibition of binding of nucleophosmin to probe 5 by analogues (FIG. 4): T-47D nuclear-enriched lysate
[3] = target: T3, peroxiredoxin 1 (PRX1) (Homo sapiens, UniProt Q06830); assay: Competitive binding affinity-isolation with probe 5 in T-47D lysates, peroxiredoxin 1; settings: 10 μM probe 5, 100 μM inhibitor
T3 construct: endogenous in cells; host or cells: T-47D lysate
Source text: as §1, §2

[4] = system: T-47D cells; assay: Antiproliferative assay (CellTiter-Blue), T-47D cells; format: cell-based, human; settings: 72-h incubation
Description: G. Antiproliferative Assays. […] The cell suspension was diluted to 1.0×10^5 cells/mL. A multichannel pipette was used to load the wells of a 96-well plate with 100 μL per well of the diluted cell suspension. […] The following day, 100-μg portions of the nitrone samples were removed from the freezer, thawed, and dissolved in filter-sterilized DMSO to a concentration of 5 mM. A 6.5-μL aliquot of the nitrone solution was dissolved in 643.5 μL of medium to achieve a working concentration of 50 μM. Serial dilutions were employed to generate a range of different concentrations for analysis. Finally, 100-μL aliquots of this diluted nitrone solution were added to the wells containing adhered cells, resulting in final assay concentrations of up to 25 μM. The treated cells were incubated for 72 h at 37° C. (5% CO2). To each well was added 20 μL of CellTiter-Blue reagent, and the samples were returned to the incubator. Fluorescence (560 nm excitation/590 nm emission) was recorded on a 96-well plate reader following a 4.0-h incubation period (37° C., 5% CO2). Percent growth inhibition was calculated for each well, based upon the following formula: Percent growth inhibition=100×(S−B0)/(Bt−B0); where S is the sample reading, Bt is the average reading for a vehicle-treated population of cells at the completion of the assay, and B0 is the average reading for an untreated population of cells at the beginning of the assay. Each analogue was run a minimum of eight times, over a period of at least two weeks. For each compound, 14 separate concentrations were used in the assay, ranging from 25 μM to 8 nM. The average inhibition at each concentration was plotted against concentration, and a curve fit was generated. […] Final GI50 values reflect the concentrations at which the resulting curves pass through 50 percent inhibition.
The cell suspension was diluted to 1.0×10^5 cells/mL. A multichannel pipette was used to charge the wells of a 96-well plate with 100 μL per well of the diluted cell suspension.
The following day, a 6.5-μL aliquot of nitrone solution, at 5 mM in DMSO, was diluted in 643.5 μL of medium to achieve a working concentration of 50 μM. Serial dilutions were employed to generate a range of different concentrations for analysis. Finally, 100-μL aliquots of the diluted nitrone solutions were added to the wells containing adhered cells, resulting in final assay concentrations of up to 25 μM.
The treated cells were incubated for 72 h at 37° C. (5% CO2). To each well was added 20 μL of CellTiter-Blue reagent, and the samples were returned to the incubator. Fluorescence (560 nm excitation/590 nm emission) was recorded on a 96-well plate reader following a 4.0 h incubation period (37° C., 5% CO2).
Percent growth inhibition was calculated for each well, based upon the following formula:
Percent growth inhibition=100×(S−B0)/(Bt−B0)
where S is the sample reading, Bt is the average reading for a vehicle-treated population of cells at the completion of the assay, and B0 is the average reading for an untreated population of cells at the beginning of the assay.

[5] = system: MALME-3M and MALME-3 cells; assay: Selectivity assay, malignant melanoma MALME-3M versus fibroblast MALME-3; format: cell-based; settings: MALME-3M versus MALME-3
Description: […]. A cell line from a healthy fibroblast from the same patient has also been deposited with the American Type Cell Culture Corporation (ATCC). Fresh stockes of both MALME-3M and MALME-3 from ATCC. Avrainvillamide was test against the two cells lines at the same time, taking all possible precautions to ensure that both sets of samples were treated identically. […] As a measure of cytotoxicity and antiproliferative activity, we calculated both LC50 and LC25 (as an estimate of GI50).
The 9.7-fold selectivity at 25 percent cell death is representative of at least a modest degree of selectivity. For comparison, cytochalsine B and geldanamycin were analyzed in identical experiments. Cytochalasine B is a non-selective cytotoxic agent for which a selectivity factor of 0.2 at 25 percent cell death was observed. Geldanamycin is known to be a potent, selective inhibitor of tumor cell growth for which a selectivity factor of >100 at 25 percent cell death was observed.

[6] = system: NPM1.3 (nucleophosmin isoform); assay: Affinity-isolation of NPM1.3 cysteine to alanine mutants expressed in COS-7 cells with probe 5; settings: 1 μM probe 5, COS-7 cell lysates
[7] = target: NPM1.3 (nucleophosmin isoform) (Homo sapiens, UniProt P06748, C275A); assay: as above; settings: 1 μM probe 5, COS-7 cell lysates
[8] = system: LNCaP cells; assay: Antiproliferative assay (CellTiter-Blue), LNCaP cells; format: cell-based, human; settings: 72-h incubation
Description: G. Antiproliferative Assays. […] The cell suspension was diluted to 1.0×10^5 cells/mL. A multichannel pipette was used to load the wells of a 96-well plate with 100 μL per well of the diluted cell suspension. […] The following day, 100-μg portions of the nitrone samples were removed from the freezer, thawed, and dissolved in filter-sterilized DMSO to a concentration of 5 mM. A 6.5-μL aliquot of the nitrone solution was dissolved in 643.5 μL of medium to achieve a working concentration of 50 μM. Serial dilutions were employed to generate a range of different concentrations for analysis. […] Fluorescence (560 nm excitation/590 nm emission) was recorded on a 96-well plate reader following a 4.0-h incubation period (37° C., 5% CO2). Percent growth inhibition was calculated for each well, based upon the following formula: Percent growth inhibition=100×(S−B0)/(Bt−B0); where S is the sample reading, Bt is the average reading for a vehicle-treated population of cells at the completion of the assay, and B0 is the average reading for an untreated population of cells at the beginning of the assay. […]
The treated cells were incubated for 72 h at 37° C. […] Fluorescence (560 nm excitation/590 nm emission) was recorded on a 96-well plate reader following a 4.0 h incubation period (37° C., 5% CO2).
Percent growth inhibition was calculated for each well, based upon the following formula: […]

[9] = target: T2, nucleophosmin; assay: Affinity-isolation from incubations with live T-47D cells, Western-blot detection of nucleophosmin; format: binding; parameters: endogenous in cells; host or cells: T-47D (live cells, whole-cell lysate, nuclear-enriched lysate); settings: 3 μM 5 versus 9 μM 3, 90 min
Description: To identify potential binding proteins, populations of healthy (adherent) T-47D cells were treated with the newly synthesized biotin conjugate 5 or the structurally simpler biotin-containing probe 3, previously studied. As a control, a separate population of cells was treated with the biotin derivative 7, which lacks the unsaturated nitrone function. The treated cells were incubated with probe or control for 90 min at 37° C., then were harvested, washed and lysed. The individual lysates were exposed to an agarose resin to remove nonspecific binding proteins. After centrifugation, the supernatants were then exposed to a streptavidin-agarose resin. This resin was collected by centrifugation and washed. Bound proteins were released by heat-denaturation, separated by SDS-PAGE, and analyzed by LC-MS/MS and Western-blot.
The lysates were transferred to fresh 1.7-mL centrifuge tubes. Each individual sample lysate was treated with 50 μL of washed, well-suspended, two-fold diluted Sepharose resin. […] The supernatant was transferred to a clean 1.7-mL centrifuge tube.
as §1

[10] = target: T2, nucleophosmin; assay: Titration of probe 5-nucleophosmin binding in T-47D whole cell lysate; parameters: endogenous in cells; host or cells: T-47D (live cells, whole-cell lysate, nuclear-enriched lysate); settings: whole-cell lysates of T-47D cells
Description: as §1
A 1-mL aliquot of T-47D whole cell lysate was thawed at 4° C. and diluted with 4 mL wash buffer, to afford a working lysate of 1.5 mg/mL total protein.

[11] = system: proteins of T-47D cells; assay: Affinity-isolation from T-47D cells, LC-MS/MS analysis of proteins; settings: narrower region of the gel; equal concentrations
[12] = target: T2, nucleophosmin; assay: Affinity-isolation following co-incubation with iodoacetamide; format: binding; parameters: endogenous in cells; host or cells: T-47D (live cells, whole-cell lysate, nuclear-enriched lysate); settings: 10 μM probe 5, 10 mM iodoacetamide; whole cell lysate
Description: Identical affinity-isolation experiments to those described in the previous section were performed, except that iodoacetamide (8 μL of a freshly prepared 500 mM solution in DMSO) was added to one sample: […]

CC1(C)C=Cc2c(ccc3c2[N+]([O-])=C2C3=C[C@@]34NC(=O)[C@]5(CCCN5C3=O)C[C@H]4C2(C)C)O1 (single isomer, unassigned; ent-1) [ent-1, (−)-avrainvillamide]
blocking of the binding of probe 5 to exportin-1 (XPO1) [1]: capable of blocking | binding of nucleophosmin to probe 5 in the presence of a 10-fold higher concentration of competitor ([2]; 10 μM probe 5, 100 μM competitor, nuclear-enriched and whole-cell T-47D lysates): not diminished | concentration required for inhibition of probe 5-nucleophosmin binding ([2]; T-47D lysate): 500 µM | fold higher concentration versus 1 required for inhibition of probe 5-nucleophosmin binding ([2]; T-47D lysate): ~5 fold | blocking of the binding of probe 5 to peroxiredoxin 1 (PRX1) [3]: capable of blocking | fold less potent than (+)-1 as inhibitor of T-47D cell growth [4]: ~3 fold

C=C1[C@@H](C)[C@H]2[C@H](Cc3ccccc3)NC(=O)[C@]23OC(=O)/C=C/[C@H](O)CCC[C@@H](C)C/C=C/[C@H]3[C@@H]1O [Cytochalasine B, reference compound]
selectivity factor, melanoma cells relative to fibroblast control (LC25, 25 percent cell death, estimate of GI50) [5]: 0.2

COC1=C2C[C@@H](C)C[C@H](OC)[C@H](O)[C@@H](C)/C=C(\C)[C@H](OC(N)=O)[C@@H](OC)/C=C\C=C(/C)C(=O)NC(=CC1=O)C2=O [Geldanamycin, reference compound]
selectivity factor, melanoma cells relative to fibroblast control (LC25, 25 percent cell death, estimate of GI50) [5]: > 100

CN(C)c1cccc2c(S(=O)(=O)NCCCCCCCCCCOc3ccc4c(c3)[N+]([O-])=C3C4=C[C@@]45NC(=O)C6(CCCN6C4=O)CC5C3(C)C)cccc12 (some centres unmarked) [compound 4]
inhibition of the growth of T-47D cells (antiproliferative potency, in words) [4]: potencies similar to the natural product

CC1(C/C=C/CCCCCCCCOC(=O)CCCC[C@@H]2SC[C@@H]3NC(=O)N[C@@H]32)C=Cc2c(ccc3c2[N+]([O-])=C2C3=C[C@@]34NC(=O)C5(CCCN5C3=O)CC4C2(C)C)O1 (some centres unmarked) [compound 5]
effect of deletion of cys21 or cys104 on affinity-isolation of NPM1.3 [6]: little effect | effect of deletion of cys275 on affinity-isolation of NPM1.3 [7]: greatly reduced | inhibition of the growth of LNCaP cells (antiproliferative potency, in words) [8]: somewhat less potent than the dansyl conjugate (4) | affinity-isolation of nucleophosmin by biotinylated probe (Western-blot) [9]: more effectively bound nucleophosmin; also recorded: selectively bind | concentration of probe sufficient to afford detectable levels of nucleophosmin [10]: 100 to 500 nM | detection of nucleophosmin by LC-MS/MS after affinity isolation [11]: detected | inhibition of the growth of T-47D cells (antiproliferative potency, in words) [4]: potencies similar to the natural product | inhibition of the growth of T-47D cells (antiproliferative potency, in words) ([4]; listed as biotin-avrainvillamide conjugate): nearly equipotent to (+)-avrainvillamide

COCCCCCCCCCCNS(=O)(=O)c1cccc2c(N(C)C)cccc12 [compound 6, reference compound]
inhibition of the growth of LNCaP cells (antiproliferative potency, in words) [8]: inactive | inhibition of the growth of T-47D cells (antiproliferative potency, in words) [4]: inactive

CC1(C)C2=[N+]([O-])c3cc(-c4ccccc4)ccc3C2=C[C@@]23NC(=O)C4(CCCN4C2=O)CC13 (some centres unmarked) [compound 8]
inhibition of binding of nucleophosmin to probe 5 by analogues (FIG. 4) [2]: inhibited essentially equivalently | inhibition of the growth of T-47D cells (antiproliferative potency, in words) [4]: nearly as potent as avrainvillamide

CC1(C)C2=[N+]([O-])c3ccc(-c4ccccc4)cc3C2=C[C@@]23NC(=O)C4(CCCN4C2=O)CC13 (some centres unmarked) [compound 9]
inhibition of binding of nucleophosmin to probe 5 by analogues (FIG. 4) [2]: only partially inhibited | fold less potent than (+)-1 as inhibitor of T-47D cell growth [4]: 3 fold

CC1(C)C2=[N+]([O-])c3cc(C#Cc4ccccc4)ccc3C2=C[C@@]23NC(=O)C4(CCCN4C2=O)CC13 (some centres unmarked) [compound 10]
inhibition of binding of nucleophosmin to probe 5 by analogues (FIG. 4) [2]: least effectively inhibited

CC1(C)C2=[N+]([O-])c3c(cccc3-c3ccccc3)C2=C[C@@]23NC(=O)C4(CCCN4C2=O)CC13 (some centres unmarked) [compound 11]
inhibition of binding of nucleophosmin to probe 5 by analogues (FIG. 4) [2]: least effectively inhibited

NC(=O)CI [iodoacetamide]
binding of nucleophosmin to probe 5 in the presence of a 1000-fold excess [12]: substantially reduced
